What was measured:
Assay in all cases: relative viability (nuclei count vs DMSO), 5 days (fraction); higher = more cells survive
AZD8055 + Navitoclax = compound: COc1ccc(-c2ccc3c(N4CCOC[C@@H]4C)nc(N4CCOC[C@@H]4C)nc3n2)cc1CO [AZD8055] + CC1(C)CCC(c2ccc(Cl)cc2)=C(CN2CCN(c3ccc(C(=O)NS(=O)(=O)c4ccc(N[C@H](CCN5CCOCC5)CSc5ccccc5)c(S(=O)(=O)C(F)(F)F)c4)cc3)CC2)C1 [Navitoclax] (partner 0.5 µM)
In short: (§1)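 After 5 days of treatment, lung cancer cells in 1536-well plates were fixed and stained in a single step (final 0.05% Triton X-100, 1% formaldehyde, 1 ug/ml Hoechst) and their nuclei counted on 4× images. Treatment had been applied by pin tool the day after seeding as one drug alone or as a fixed anchor-drug dose with five library-drug doses (not always all listed) in √10 steps. Relative viability is the nuclei count of treated wells divided by that of vehicle wells, and values are medians of duplicate plates.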

AZD8055 + Vorinostat = compound: COc1ccc(-c2ccc3c(N4CCOC[C@@H]4C)nc(N4CCOC[C@@H]4C)nc3n2)cc1CO [AZD8055] + O=C(CCCCCCC(=O)Nc1ccccc1)NO [Vorinostat] (partner 1 µM)
In short: as §1

AZD8055 + Pemetrexed = compound: COc1ccc(-c2ccc3c(N4CCOC[C@@H]4C)nc(N4CCOC[C@@H]4C)nc3n2)cc1CO [AZD8055] + Nc1nc2[nH]cc(CCc3ccc(C(=O)N[C@@H](CCC(=O)O)C(=O)O)cc3)c2c(=O)[nH]1 [Pemetrexed] (partner 0.2 µM)
In short: as §1

AZD8055 + Linsitinib = compound: COc1ccc(-c2ccc3c(N4CCOC[C@@H]4C)nc(N4CCOC[C@@H]4C)nc3n2)cc1CO [AZD8055] + C[C@]1(O)C[C@@H](c2nc(-c3ccc4ccc(-c5ccccc5)nc4c3)c3c(N)nccn32)C1 [Linsitinib] (partner 1 µM)
In short: as §1

| Cell Line | relative viability (AZD8055 + Navitoclax; first compound 0.01 µM) | relative viability (AZD8055 + Navitoclax; first compound 0.03162 µM) | relative viability (AZD8055 + Navitoclax; first compound 0.1 µM) | relative viability (AZD8055 + Navitoclax; first compound 0.3162 µM) | relative viability (AZD8055 + Navitoclax; first compound 1 µM) | relative viability (AZD8055 + Vorinostat; first compound 0.01 µM) | relative viability (AZD8055 + Vorinostat; first compound 0.03162 µM) | relative viability (AZD8055 + Vorinostat; first compound 0.1 µM) | relative viability (AZD8055 + Vorinostat; first compound 0.3162 µM) | relative viability (AZD8055 + Vorinostat; first compound 1 µM) | relative viability (AZD8055 + Pemetrexed; first compound 0.01 µM) | relative viability (AZD8055 + Pemetrexed; first compound 0.03162 µM) | relative viability (AZD8055 + Pemetrexed; first compound 0.1 µM) | relative viability (AZD8055 + Pemetrexed; first compound 0.3162 µM) | relative viability (AZD8055 + Pemetrexed; first compound 1 µM) | relative viability (AZD8055 + Linsitinib; first compound 0.01 µM) | relative viability (AZD8055 + Linsitinib; first compound 0.03162 µM) | relative viability (AZD8055 + Linsitinib; first compound 0.1 µM) | relative viability (AZD8055 + Linsitinib; first compound 0.3162 µM) | relative viability (AZD8055 + Linsitinib; first compound 1 µM) |
| --- | --- | --- | --- | --- | --- | --- | --- | --- | --- | --- | --- | --- | --- | --- | --- | --- | --- | --- | --- | --- |
| 201T | 1.22 | 1.23 | 1.21 | 1.03 | 0.819 | 0.974 | 0.943 | 0.824 | 0.679 | 0.575 | 0.312 | 0.317 | 0.359 | 0.293 | 0.293 | 0.997 | 0.906 | 0.758 | 0.609 | 0.554 |
| A-427 | 0.987 | 0.837 | 0.598 | 0.376 | 0.315 | 0.928 | 0.868 | 0.849 | 0.6 | 0.535 | 1.04 | 0.895 | 0.835 | 0.555 | 0.587 | 1.13 | 0.95 | 0.927 | 0.783 | 0.547 |
| ABC-1 | – | – | – | – | – | 1.07 | 1.15 | 1.12 | 0.466 | 0.533 | – | – | – | – | – | 0.845 | 0.484 | 0.551 | 0.425 | 0.323 |
| BEN | 0.0642 | 0.064 | 0.0538 | 0.0837 | 0.0613 | 0.614 | 0.443 | 0.442 | 0.327 | 0.297 | 0.815 | 0.589 | 0.514 | 0.421 | 0.449 | 0.955 | 0.574 | 0.41 | 0.325 | 0.279 |
| CAL-12T | 1.25 | 1.24 | 0.838 | 0.35 | 0.23 | 0.954 | 0.631 | 0.598 | 0.276 | 0.217 | 1.02 | 0.891 | 0.918 | 0.424 | 0.296 | 0.84 | 0.658 | 0.465 | 0.211 | 0.258 |
| COR-L23 | 1.01 | 0.732 | 0.468 | 0.229 | 0.172 | 0.505 | 0.395 | 0.326 | 0.169 | 0.177 | 0.204 | 0.194 | 0.186 | 0.177 | 0.178 | 0.977 | 0.578 | 0.392 | 0.152 | 0.14 |
| COR-L 105 | 0.914 | 0.961 | 0.596 | 0.358 | 0.39 | 0.865 | 0.766 | 0.805 | 0.516 | 0.421 | 1.3 | 1.16 | 1.29 | 0.664 | 0.485 | 0.833 | 0.941 | 0.5 | 0.315 | 0.297 |
| Calu-6 | 0.886 | 0.792 | 0.621 | 0.32 | 0.313 | – | – | – | – | – | – | – | – | – | – | 1.09 | 0.77 | 0.637 | 0.356 | 0.329 |
| ChaGo-K-1 | 1.09 | 1.08 | 1.3 | 0.655 | 0.44 | 0.769 | 0.673 | 0.741 | 0.631 | 0.541 | 0.26 | 0.262 | 0.256 | 0.251 | 0.271 | – | – | – | – | – |
| EKVX | 1.08 | 1.04 | 0.797 | 0.512 | 0.413 | 0.68 | 0.729 | 0.519 | 0.422 | 0.366 | 0.476 | 0.436 | 0.389 | 0.322 | 0.289 | 1.05 | 0.947 | 0.604 | 0.384 | 0.24 |
| EMC-BAC-2 | 1.22 | 1.13 | 1.05 | 0.446 | 0.37 | 0.445 | 0.342 | 0.303 | 0.263 | 0.287 | 0.501 | 0.465 | 0.474 | 0.396 | 0.316 | 0.784 | 0.65 | 0.53 | 0.337 | 0.3 |
| EPLC-272H | 1.1 | 0.842 | 0.556 | 0.378 | 0.35 | 0.331 | 0.401 | 0.343 | 0.144 | 0.261 | 0.361 | 0.363 | 0.369 | 0.321 | 0.331 | 1.1 | 0.926 | 0.669 | 0.404 | 0.373 |
| H3255 | 0.54 | 0.443 | 0.324 | 0.176 | 0.172 | 0.967 | 0.746 | 0.747 | 0.513 | 0.357 | 0.636 | 0.562 | 0.487 | 0.443 | 0.364 | 0.925 | 0.858 | 0.63 | 0.468 | 0.277 |
| HARA | 1.16 | 1.13 | 0.935 | 0.738 | 0.393 | 0.574 | 0.527 | 0.441 | 0.24 | 0.227 | – | 0.214 | 0.281 | 0.259 | 0.192 | 0.942 | 0.998 | 0.517 | 0.303 | 0.202 |
| HCC-15 | 0.782 | 0.591 | 0.561 | 0.38 | 0.293 | 0.833 | 0.844 | 0.762 | 0.468 | 0.333 | 0.241 | 0.236 | 0.209 | 0.238 | 0.241 | 0.778 | 0.808 | 0.644 | 0.467 | 0.29 |
| HCC-44 | 0.985 | 0.891 | 0.617 | 0.41 | 0.448 | 1.12 | 1.22 | 1.07 | 0.735 | 0.803 | 0.65 | 0.702 | 0.665 | 0.655 | 0.673 | 0.565 | 0.506 | 0.298 | 0.198 | 0.226 |
| HCC-78 | 0.817 | 0.574 | 0.339 | 0.238 | 0.198 | 0.428 | 0.394 | 0.38 | 0.398 | 0.321 | 0.967 | 0.865 | 0.855 | 0.88 | 0.896 | 0.442 | 0.355 | 0.222 | 0.195 | 0.177 |
